Read-outs that look alike come from different tables or passages of the source.
What was measured:
allodynia model = test: Allodynia test (intrathecal nociceptin, tactile stimulation); assay type: in vivo, Mice; conditions: Mus musculus, read-out: Allodynia M.E.D. (minimum effective dose)
Procedure: Mice (Crj, ICR, 4-week-old, male) were intrathecally administered with nociceptin (50 pg/5 μl) without anesthesia. For 20 min after administration and at 5 min intervals, an area from lateral region to tail of the mice was rubbed with a brush and the response of the mice was observed. The evaluation followed the criteria of 0; no change, 1; run or cry upon tactile stimulation, and 2; cry loud or dash away upon tactile stimulation. The test compound was suspended in a 0.5% MC solution and orally administered 60 min before nociceptin administration. The significant difference of the score of each administration group at 20 min after nociceptin administration from the group administered with solvent was analyzed with Mann-Whitny U-test.

ORL-1 receptor = target: T1, ORL-1 receptor (Homo sapiens, UniProt P41146); test: ORL1 receptor binding assay ([3H]nociceptin); conditions: for Ki: calculated from IC50 and Kd of [3H]nociceptin; for IC50: membrane of human ORL-1 expression cells, [3H]nociceptin 0.5 nM
T1 construct: expressed in transfected cells
Procedure: ORL1 Receptor Binding Assay
A cell membrane suspension obtained from human ORL-1 expression cells was adjusted with Tris buffer [50 mM Tris, 2 mM EDTA, 0.1 mM (p-Amidinophenyl)methanesulfonyl Fluoride Hydrochloride (p-APMSF), 2 mg/ml BSA] to membrane protein amount of about 25 μg/ml (2.5 μg/well). This was mixed with [^3H]nociceptin (diluted with Tris buffer to a final concentration of 0.5 nM) and test compound (diluted with Tris buffer to a final concentration of 10 nM-10 μM), and the mixture was incubated at room temperature for 60 min. The membrane was recovered on a G/F-B filter (Packard, Unifilter 96GF/B) using a cell harvester and the reaction was stopped. After washing 3 times, the filter was dried at 42° C. for 1 hr. A scintillation solution (Packard, microscint-20) was added and the radioactivity (Packard, Top count A9912V) was assayed.
(§1) The nonspecific binding was the binding in the presence of 1 μM nociceptin and the difference between the total binding and nonspecific binding was taken as the specific binding. IC50 was calculated from inhibition of specific binding at each concentration of the compound, and Ki value of the test compound was calculated from this value and Kd value of [^3H]nociceptin.

μ receptor = target: T2, μ receptor (Rattus norvegicus, UniProt P33535); test: μ receptor binding assay ([3H]DAMGO); conditions: for Ki: calculated from IC50 and Kd of [3H]DAMGO; for IC50: rat cerebrum membrane, [3H]DAMGO 1 nM
T2 construct: Rat cerebrum membrane standard sample; from tissue; host or cells: rat cerebrum membranes
Procedure: Rat cerebrum membrane standard sample (final concentration 0.755 mg·protein/ml), [^3H]DAMGO (Try-D-Ala-Gly-NMe-Phe-Gly-ol) [diluted with Tris buffer (50 mM Tris-HCl, 0.1 mM p-APMSF, 2 mg/ml BSA (pH=7.4)) to a final concentration of 1 nM] and test compound (diluted with Tris buffer to a final concentration of 10 nM-10 μM) were mixed, and the mixture was incubated at room temperature for 90 min. The membrane was recovered on a G/F-B filter (same as above) using a cell harvester and the reaction was stopped. After washing 3 times, the filter was dried at 42° C. for 1 hr. A scintillation solution (same as above) was added and the radioactivity (same as above) was assayed.
as §1, with “10” for “1”, “naloxone” for “nociceptin”, “[^3H]DAMGO.” for “[^3H]nociceptin.”

Mice = test: Hot-plate test; assay type: in vivo; conditions: Mus musculus, 1 h, oral, 60 min after administration, 55.5°C, read-out: Hot-plate M.E.D. (minimum effective dose)
Procedure: Mice (Crj, ICR, 4-week-old, male) were placed on a hot-plate (temperature 55.5±0.5° C.) and the time until the mice jumped and tried to run away was recorded. The mice were grouped according to the time and body weight so that the groups were evenly membered. The test compound was suspended in a 0.5% methylcellulose (MC) solution and orally administered to mice. After 60 min, the mice were again placed on a hot-plate and the time until they licked the hindlimb or jumped and tried to run away was recorded. The significant difference from the group administered with solvent was analyzed with ANOVA followed by Dunnett two-tailed test.

[1] = mice, oral, 60 min before nociceptin 50 pg i.t., score at 20 min

T2 sequence (P33535 whole entry): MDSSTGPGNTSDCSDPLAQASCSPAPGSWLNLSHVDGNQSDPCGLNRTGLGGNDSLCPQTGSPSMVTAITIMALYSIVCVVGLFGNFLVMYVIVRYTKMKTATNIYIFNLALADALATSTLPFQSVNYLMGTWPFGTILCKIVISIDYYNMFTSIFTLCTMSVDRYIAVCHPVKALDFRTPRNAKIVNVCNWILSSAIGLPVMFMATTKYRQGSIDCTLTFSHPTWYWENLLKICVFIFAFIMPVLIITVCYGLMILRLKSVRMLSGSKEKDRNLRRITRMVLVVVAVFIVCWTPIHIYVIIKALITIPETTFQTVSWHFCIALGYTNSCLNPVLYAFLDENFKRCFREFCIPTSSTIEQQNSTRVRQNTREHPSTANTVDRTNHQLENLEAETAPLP
T1 sequence (P41146 whole entry): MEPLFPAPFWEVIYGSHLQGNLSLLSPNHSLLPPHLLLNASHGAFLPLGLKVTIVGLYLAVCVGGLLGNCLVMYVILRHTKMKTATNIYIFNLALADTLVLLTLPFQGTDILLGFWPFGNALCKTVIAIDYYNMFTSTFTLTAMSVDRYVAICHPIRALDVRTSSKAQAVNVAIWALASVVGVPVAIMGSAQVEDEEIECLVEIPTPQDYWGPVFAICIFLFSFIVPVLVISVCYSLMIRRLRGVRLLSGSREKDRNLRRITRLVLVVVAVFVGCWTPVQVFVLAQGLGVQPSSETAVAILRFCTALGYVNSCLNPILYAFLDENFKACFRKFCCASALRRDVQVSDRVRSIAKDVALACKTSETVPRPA

SMILES	Ki (ORL-1 receptor) [nM]	IC50 (ORL-1 receptor) [nM]	Ki (μ receptor) [nM]	IC50 (μ receptor) [nM]	melting point [°C]	minimal effective dose (allodynia model; [1]) [mg/kg]	minimal effective dose (Mice) [mg/kg]	minimal effective dose (allodynia model; po) [mg/kg]
CCc1cc(N)c2cc(NC(=O)c3ccccc3COc3ccc(Cl)cc3)ccc2n1.Cl [Example 49]	2	40	464	1260	–	0.3	1	–
Cc1cc(N)c2cc(NC(=O)c3ccccc3COc3ccc([N+](=O)[O-])cc3)ccc2n1 [Example 7, N-(4-amino-2-methyl-6-quinolyl)-2-[(4-nitrophenoxy)methyl]benzamide]	–	–	346	960	148	0.3	3	–
Cc1cc(N)c2cc(NC(=O)c3ccccc3COc3cccc([N+](=O)[O-])c3)ccc2n1.Cl [Example 19, N-(4-amino-2-methyl-6-quinolyl)-2-[(3-nitrophenoxy)methyl]benzamide hydrochloride]	9	160	388	1030	245	0.1	3	–
COc1cccc(OCc2ccccc2C(=O)Nc2ccc3nc(C)cc(N)c3c2)c1OC.Cl [Example 8, N-(4-amino-2-methyl-6-quinolyl)-2-[(2,3-dimethoxyphenoxy)methyl]benzamide hydrochloride]	50	940	183	490	196	3	–	–
CCc1ccc(OCc2ccccc2C(=O)Nc2ccc3nc(CC)cc(N)c3c2)c(Cl)c1 [Example 90]	5	110	442	1180	–	–	3	–
Cc1cc(N)c2cc(NC(=O)c3ccccc3CCCCCOc3ccccc3)ccc2n1.Cl [Example 64]	73	1390	1380	3610	253	> 3	–	–
Cc1cc(N)c2cc(NC(=O)c3ccccc3COc3ccc(Cl)cc3Cl)ccc2n1.Cl [Example 2, N-(4-amino-2-methyl-6-quinolyl)-2-[(2,4-dichlorophenoxy)methyl]benzamide hydrochloride]	4	70	497	1330	262	0.3	1	–
Cc1ccc(OCc2ccccc2C(=O)Nc2ccc3nc(C)cc(N)c3c2)cc1.Cl [Example 17, N-(4-amino-2-methyl-6-quinolyl)-2-[(4-methylphenoxy)methyl]benzamide hydrochloride]	–	130	385	1020	255	–	1	0.3
CCc1ccc(OCc2ccccc2C(=O)Nc2ccc3nc(C)cc(N)c3c2)cc1.Cl [Example 1, N-(4-amino-2-methyl-6-quinolyl)-2-[(4-ethylphenoxy)methyl]-benzamide hydrochloride]	7	120	570	1520	–	0.3	1	–
CCCc1ccc(OCc2ccccc2C(=O)Nc2ccc3nc(C)cc(N)c3c2)cc1.Cl [Example 34, N-(4-amino-2-methyl-6-quinolyl)-2-[(4-propylphenoxy)methyl]benzamide hydrochloride]	8	140	888	2370	–	0.3	3	–
Cc1cc(N)c2cc(NC(=O)c3ccccc3CCCCCCOc3ccccc3)ccc2n1.Cl [Example 66]	108	2000	–	–	210	> 3	–	–
Cc1cc(N)c2cc(NC(=O)c3ccccc3COc3ccc(C(F)(F)F)cc3)ccc2n1.Cl [Example 18, N-(4-amino-2-methyl-6-quinolyl)-2-[(4-trifluoromethylphenoxy)methyl]benzamide hydrochloride]	4	90	393	1040	220	0.3	–	–
COc1ccc(OCc2ccccc2C(=O)Nc2ccc3nc(C)cc(N)c3c2)cc1.Cl [Example 4, N-(4-amino-2-methyl-6-quinolyl)-2-[(4-methoxyphenoxy)methyl]benzamide hydrochloride]	–	–	453	1260	276	–	< 3	< 1
Cc1cc(N)c2cc(NC(=O)c3ccccc3COc3ccccc3)ccc2n1.Cl [Example 3, N-(4-amino-2-methyl-6-quinolyl)-2-(phenoxymethyl)benzamide hydrochloride]	79	1470	417	1110	–	3	30	–

Second part, led by results:

Ki (ORL-1 receptor) [nM]	IC50 (ORL-1 receptor) [nM]	Ki (μ receptor) [nM]	IC50 (μ receptor) [nM]	melting point [°C]	SMILES	minimal effective dose (allodynia model; [1]) [mg/kg]	minimal effective dose (Mice) [mg/kg]	minimal effective dose (allodynia model; po) [mg/kg]
5	110	785	2100	–	Cc1ccc(OCc2ccccc2C(=O)Nc2ccc3nc(C)cc(N)c3c2)c(Cl)c1.Cl [Example 43, N-(4-amino-2-methyl-6-quinolyl)-2-[(2-chloro-4-methylphenoxy)methyl]benzamide hydrochloride]	0.3	1	–
4	80	745	1990	–	Cc1cc(N)c2cc(NC(=O)c3ccccc3COc3ccc(Cl)c(C)c3)ccc2n1.Cl [Example 42, N-(4-amino-2-methyl-6-quinolyl)-2-[(4-chloro-3-methylphenoxy)methyl]benzamide hydrochloride]	0.3	1	–
3	60	424	1120	245	Cc1cc(N)c2cc(NC(=O)c3ccccc3COc3ccc(Cl)cc3)ccc2n1.Cl [Example 11, N-(4-amino-2-methyl-6-quinolyl)-2-[(4-chlorophenoxy)methyl]benzamide hydrochloride]	0.3	3	–
28	520	505	1340	265	Cc1cc(C)cc(OCc2ccccc2C(=O)Nc2ccc3nc(C)cc(N)c3c2)c1.Cl [Example 5, N-(4-amino-2-methyl-6-quinolyl)-2-[(3,5-dimethylphenoxy)methyl]benzamide hydrochloride]	3	–	–
5	90	565	1440	252	Cc1cc(N)c2cc(NC(=O)c3ccccc3COc3ccc(Br)cc3)ccc2n1.Cl [Example 33, N-(4-amino-2-methyl-6-quinolyl)-2-[(4-bromophenoxy)methyl]benzamide hydrochloride]	0.3	–	–
16	320	764	2030	–	Cc1cccc(OCc2ccccc2C(=O)Nc2ccc3nc(C)cc(N)c3c2)c1 [Example 9, N-(4-amino-2-methyl-6-quinolyl)-2-[(3-methylphenoxy)methyl]benzamide]	1	< 3	–
